Common to all, as to type: functional
In assay [1] the test system is Phytophthora infestans. Briefly: Fungicidal activity against tomato late blight disease-causing Phytophthora infestans at 375 g ai/ha.
Assay [2] concerns Empoasca fabae. Description: Insecticidal activity against Empoasca fabae (potato leafhopper) at 600 g ai/ha.
The subject of assay [3] is Myzus persicae. Briefly: Insecticidal activity against Myzus persicae (green peach aphid) at 600 g ai/ha.
For assay [4], the system named is Empoasca fabae. Briefly: Insecticidal activity against Empoasca fabae (potato leafhopper) at 300 g ai/ha.
Assay [5] relates to Myzus persicae. Description: Insecticidal activity against Myzus persicae (green peach aphid) at 300 g ai/ha.
Assay [6] relates to Phytophthora infestans. Description: Fungicidal activity against tomato late blight disease-causing Phytophthora infestans at 300 g ai/ha.

The structures appear in SMILES notation.

With `COc1ccc(-c2nc(C)sc2C(=O)N2CCOCC2)cc1OC`, the Activity in the assay with Phytophthora infestans [1] is reported as 90%; in the assay with Empoasca fabae [2], 20%; in the assay on Myzus persicae [3], 20%.

`CCN(CC)C(=O)c1sc(C)nc1-c1ccc(OC)c(OC)c1`: the figures for the Activity in the assay on Phytophthora infestans [1], with Empoasca fabae [2] and in the assay on Myzus persicae [3] were 0%, 40% and 0%, respectively.

Regarding `COc1ccc(-c2nc(C)sc2C(N)=O)cc1OC`, the values for the Activity in the assay on Phytophthora infestans [1], in the assay with Empoasca fabae [2] and in the assay on Myzus persicae [3] were 0%, 20% and 0%, respectively.

As for `CCN(C)C(=O)c1sc(C)nc1-c1ccc(OC)c(OC)c1`, the figures for the Activity with Phytophthora infestans [1], with Empoasca fabae [2] and with Myzus persicae [3] were 0%, 40% and 40%, respectively.

For `COc1ccc(/C(=C\C(=O)N2CCOCC2)c2ccc(F)cc2)cc1OC` [FLUMORPH], the values for the Activity in the assay with Empoasca fabae [4], in the assay with Myzus persicae [5] and in the assay with Phytophthora infestans [6] were 0%, 0% and 100%, respectively.

As to `C#CCOC(=O)c1sc(C)nc1-c1ccc(OC)c(OC)c1`, the Activity with Phytophthora infestans [1] came out at 0%; in the assay on Empoasca fabae [2], 20%; in the assay on Myzus persicae [3] it was 20%.

`COc1ccc(-c2nc(C)sc2C(=O)NCCCn2ccnc2)cc1OC`: the Activity is given as 75% in the assay on Phytophthora infestans [1], 0% in the assay with Empoasca fabae [2] and 0% with Myzus persicae [3].

Regarding `COc1ccc(-c2nc(C)sc2C(=O)O)cc1OC`, the Activity in the assay on Phytophthora infestans [1] is reported as 0%; in the assay on Empoasca fabae [2], 20%; in the assay on Myzus persicae [3] it was 0%.

Regarding `COc1ccc(-c2nc(C)sc2C(=O)Nc2ccccc2)cc1OC`, the Activity with Phytophthora infestans [1] came out at 0%; in the assay on Empoasca fabae [2], 40%; in the assay on Myzus persicae [3] it was 20%.

On to `COC(=O)c1sc(C)nc1-c1ccc(OC)c(OC)c1`, for which the Activity is reported as 0% with Phytophthora infestans [1], 40% in the assay with Empoasca fabae [2] and 0% with Myzus persicae [3].

As for `COc1ccc(-c2nc(C)sc2C(=O)NCC#N)cc1OC`, the Activity in the assay on Phytophthora infestans [1], in the assay with Empoasca fabae [2] and in the assay on Myzus persicae [3] was 0% throughout.

For the compound `COc1ccc(C(=CC(=O)N2CCOCC2)c2ccc(Cl)cc2)cc1OC` [DIMETHOMORPH], the Activity with Empoasca fabae [4] came out at 0%; in the assay on Myzus persicae [5], 0%; in the assay on Phytophthora infestans [6] it was 100%.

With `COc1ccc(-c2nc(C)sc2C(=O)OCC(C)C)cc1OC`, the Activity in the assay with Phytophthora infestans [1] turned out to be 75%; in the assay with Empoasca fabae [2], 20%; in the assay with Myzus persicae [3] it was 20%.

For `C#CC(C)(C)NC(=O)c1sc(C)nc1-c1ccc(OC)c(OC)c1`, the values for the Activity in the assay on Phytophthora infestans [1], in the assay on Empoasca fabae [2] and with Myzus persicae [3] were 0%, 40% and 60%, respectively.

Consider `C#CC(C)(CC)NC(=O)c1sc(C)nc1-c1ccc(OC)c(OC)c1` (stereo not drawn), for which the Activity in the assay on Phytophthora infestans [1] is on record as 90%; in the assay on Empoasca fabae [2], 0%; with Myzus persicae [3], 20%.

Take `COc1ccc(-c2nc(C)sc2C(=O)N(C)OC)cc1OC`: the results for the Activity in the assay with Phytophthora infestans [1], in the assay on Empoasca fabae [2] and in the assay on Myzus persicae [3] were 50%, 20% and 20%, respectively.

(Values after ChEMBL document CHEMBL3046056, “Design, synthesis, and biological activity of novel 4-(3,4-dimethoxyphenyl)-2-methylthiazole-5-carboxylic acid derivatives” (2004).)
